Reference: patent US6710049B2, “Azole compounds as anti-fungal agents” (Ranbaxy Laboratories Limited, priority 2000, dated 2004)
Values after ≈ are worked out from the molar mass of the structure shown.

Key:
[1] = tested on: C neoformans I; assay: MIC determination (NCCLS broth method); format: cell-based, Cryptococcus neoformans
From the text: (§1) The in-vitro evaluation of the antifungal activity of the compounds can be performed by determining the minimum inhibitory concentration (MIC) as shown in Table 1 which is the concentration of the test compound in Rosewell Park Memorial Institute (RPMI) 1640 liquid medium buffered with 3-(Morpholino)propanesulphonic acid (MOPS) to pH 7, at which there is significant inhibition of the particular fungi. In practice the National Committee for Clinical Laboratory Standard (NCCLS) M27A document for Candida and Cryptococcus and M38P for Aspergillus was used to determine the MIC against yeast and filamentous fungi with suitable modifications for dermatophytes to other filamentous fungi. Three quality control strains were included each time the MIC were determined and readings recorded only when the Quality Control results fell into the acceptable range. After MIC results had been recorded, 100 μl from each of the well showing no growth was spread over Sabouraud Dextrose Agar (SDA) to determine the minimum fungicidal concentration (MFC) as shown in Table 2.

[2] = tested on: C neoformans M-106; assay: MIC determination (NCCLS broth method); format: cell-based, Cryptococcus neoformans
From the text: as §1

[3] = tested on: Penicillium spp. isolates; assay: Comparative in vitro MIC, isolate panel; format: cell-based
From the text: as §1
(§2) A comparative in vitro and in vivo biologically activity data of the compound of our invention, 2-{[1R,2R]-2-(2,4-Difluorophenyl)-2-hydroxy-1-methyl-3-(1H-1,2,4-triazole-1-yl)propyl}-4-[(2′,2′,3′,3′-tetrafluoropropoxyphenyl)-3-(2H,4H)-1,2,4-thiotriazolone (Compound No. 3) with 2-[(1R,2R)-2-(2,4-difluorophenyl)-2-hydroxy-1-methyl-3-(1H-1,2,4-triazol-1-yl)propyl]-4-(2′,2′,3′,3′-tetraflouropropoxyphenyl)-3(2H,4H)-1,2,4-triazolone (TAK 187) and standard antifungal pharmaceuticals is given below: […]

[4] = tested on: All fungal pathogens; assay: Comparative in vitro MIC, isolate panel; format: cell-based
From the text: as §1, §2

[5] = tested on: All Candida isolates; assay: Comparative in vitro MIC, isolate panel; format: cell-based
From the text: as §1, §2

[6] = tested on: Rhizoupus spp. isolates; assay: Comparative in vitro MIC, isolate panel; format: cell-based
From the text: as §1, §2

[7] = tested on: Fusarium spp. isolates; assay: Comparative in vitro MIC, isolate panel; format: cell-based
From the text: as §1, §2

[8] = tested on: All Filamentous isolates; assay: Comparative in vitro MIC, isolate panel; format: cell-based
From the text: as §1, §2

[9] = tested on: Aspergillus fumigatus isolates; assay: Comparative in vitro MIC, isolate panel; format: cell-based
From the text: as §1, §2

[10] = tested on: Penicilliuim 2306; assay: MIC determination (NCCLS broth method); format: cell-based, Penicillium
From the text: as §1

[11] = tested on: P variotii 22319; assay: MIC determination (NCCLS broth method); format: cell-based, Paecillomyces variotii
From the text: as §1

[12] = tested on: Penicillium 1641; assay: MIC determination (NCCLS broth method); format: cell-based
From the text: as §1

[13] = tested on: Mucor (Ceylon); assay: MIC determination (NCCLS broth method); format: cell-based
From the text: as §1

[14] = tested on: Penicillium 3162; assay: MIC determination (NCCLS broth method); format: cell-based
From the text: as §1

[15] = tested on: A flavus E4 - 1042; assay: MIC determination (NCCLS broth method); format: cell-based
From the text: as §1

[16] = tested on: C tropicalis 750; assay: MIC determination (NCCLS broth method); format: cell-based
From the text: as §1

[17] = tested on: Rhizopus (Ceylon); assay: MIC determination (NCCLS broth method); format: cell-based
From the text: as §1

[18] = tested on: A flavus E3 - 1044; assay: MIC determination (NCCLS broth method); format: cell-based
From the text: as §1

[19] = tested on: Rhizopus 1052; assay: MIC determination (NCCLS broth method); format: cell-based
From the text: as §1

[20] = tested on: Penicillium H - 1048; assay: MIC determination (NCCLS broth method); format: cell-based
From the text: as §1

[21] = tested on: C krusei 6258; assay: MIC determination (NCCLS broth method); format: cell-based
From the text: as §1

[22] = tested on: A flavus P3 - 1041; assay: MIC determination (NCCLS broth method); format: cell-based
From the text: as §1

[23] = tested on: C glabrata 90030; assay: MIC determination (NCCLS broth method); format: cell-based
From the text: as §1

[24] = tested on: C parapsilosis 22019; assay: MIC determination (NCCLS broth method); format: cell-based
From the text: as §1

[25] = tested on: Penicillium 2548; assay: MIC determination (NCCLS broth method); format: cell-based
From the text: as §1

[26] = tested on: Fusarium 1050; assay: MIC determination (NCCLS broth method); format: cell-based
From the text: as §1

[27] = tested on: P variotii 22319; assay: MFC determination (subculture on Sabouraud Dextrose Agar); format: cell-based, Paecillomyces variotii
From the text: as §1

[28] = tested on: A fumigatus 1008; assay: as above; format: cell-based, Aspergillus fumigatus
From the text: as §1

[29] = tested on: A fumigatus SI-1 - 1019; assay: as above; format: cell-based, Aspergillus fumigatus
From the text: as §1

[30] = tested on: A fumigatus L - 1034; assay: MIC determination (NCCLS broth method); format: cell-based, Aspergillus fumigatus
From the text: as §1

[31] = tested on: A fumigatus PGI - 1023; assay: MIC determination (NCCLS broth method); format: cell-based, Aspergillus fumigatus
From the text: as §1

[32] = tested on: A fumigatus 1008; assay: MIC determination (NCCLS broth method); format: cell-based, Aspergillus fumigatus
From the text: as §1

[33] = tested on: A fumigatus J - 1032; assay: MIC determination (NCCLS broth method); format: cell-based, Aspergillus fumigatus
From the text: as §1

[34] = tested on: A fumigatus I - 1011; assay: MIC determination (NCCLS broth method); format: cell-based, Aspergillus fumigatus
From the text: as §1

[35] = tested on: A fumigatus II - 1012; assay: MIC determination (NCCLS broth method); format: cell-based, Aspergillus fumigatus
From the text: as §1

[36] = tested on: A fumigatus K - 1033; assay: MIC determination (NCCLS broth method); format: cell-based, Aspergillus fumigatus
From the text: as §1

[37] = tested on: A fumigatus SI-1 - 1019; assay: MIC determination (NCCLS broth method); format: cell-based, Aspergillus fumigatus
From the text: as §1

C[C@@H]1[C@H](O)[C@@H](C)/C=C/C=C/C=C/C=C/C=C/C=C/C=C/[C@H](O[C@@H]2O[C@H](C)[C@@H](O)[C@H](N)[C@@H]2O)C[C@@H]2O[C@](O)(C[C@@H](O)C[C@@H](O)[C@H](O)CC[C@@H](O)C[C@@H](O)CC(=O)O[C@H]1C)C[C@H](O)[C@H]2C(=O)O [Amphotericin-B, Amphotericin B]
Minimum Inhibitory Concentration (MIC) [1]: 0.06 µg/mL
Minimum Inhibitory Concentration (MIC) [2]: 0.03 µg/mL
MIC50 [3]: 0.25 µg/mL (≈ 0.271 µM)
MIC90 [3]: 0.25 µg/mL (≈ 0.271 µM)
MIC G.M. [3]: 0.144 µg/mL (≈ 0.156 µM)
MIC50 [4]: 0.25 µg/mL (≈ 0.271 µM)
MIC90 [4]: 0.5 µg/mL (≈ 0.541 µM)
MIC G.M. [4]: 0.21 µg/mL (≈ 0.227 µM)
MIC50 [5]: 0.25 µg/mL (≈ 0.271 µM)
MIC90 [5]: 0.25 µg/mL (≈ 0.271 µM)
MIC G.M. [5]: 0.22 µg/mL (≈ 0.238 µM)
MIC50 [6]: 0.125 µg/mL (≈ 0.135 µM)
MIC90 [6]: 0.25 µg/mL (≈ 0.271 µM)
MIC G.M. [6]: 0.177 µg/mL (≈ 0.192 µM)
MIC50 [7]: 0.5 µg/mL (≈ 0.541 µM)
MIC90 [7]: 2 µg/mL (≈ 2.16 µM)
MIC G.M. [7]: 0.841 µg/mL (≈ 0.91 µM)
MIC50 [8]: 0.25 µg/mL (≈ 0.271 µM)
MIC90 [8]: 0.5 µg/mL (≈ 0.541 µM)
MIC G.M. [8]: 0.22 µg/mL (≈ 0.238 µM)
MIC50 [9]: 0.25 µg/mL (≈ 0.271 µM)
MIC90 [9]: 0.5 µg/mL (≈ 0.541 µM)
MIC G.M. [9]: 0.27 µg/mL (≈ 0.292 µM)
Minimum Inhibitory Concentration (MIC) [10]: 0.25 µg/mL
Minimum Inhibitory Concentration (MIC) [11]: 0.03 µg/mL
Minimum Inhibitory Concentration (MIC) [12]: 0.06 µg/mL
Minimum Inhibitory Concentration (MIC) [13]: 0.06 µg/mL
Minimum Inhibitory Concentration (MIC) [14]: 0.25 µg/mL
Minimum Inhibitory Concentration (MIC) [15]: 0.125 µg/mL
Minimum Inhibitory Concentration (MIC) [16]: 0.25 µg/mL
Minimum Inhibitory Concentration (MIC) [17]: 64 µg/mL
Minimum Inhibitory Concentration (MIC) [18]: 1 µg/mL
Minimum Inhibitory Concentration (MIC) [19]: 0.06 µg/mL
Minimum Inhibitory Concentration (MIC) [20]: 0.25 µg/mL
Minimum Inhibitory Concentration (MIC) [21]: 0.25 µg/mL
Minimum Inhibitory Concentration (MIC) [22]: 0.5 µg/mL
Minimum Inhibitory Concentration (MIC) [23]: 0.25 µg/mL
Minimum Inhibitory Concentration (MIC) [24]: 0.25 µg/mL
Minimum Inhibitory Concentration (MIC) [25]: 0.03 µg/mL
Minimum Inhibitory Concentration (MIC) [26]: 0.5 µg/mL
Minimum Fungicidal Concentration (MFC) [27]: 2 µg/mL
Minimum Fungicidal Concentration (MFC) [28]: 1 µg/mL
Minimum Fungicidal Concentration (MFC) [29]: 2 µg/mL
Minimum Inhibitory Concentration (MIC) [30]: 0.25 µg/mL
Minimum Inhibitory Concentration (MIC) [31]: 0.125 µg/mL
Minimum Inhibitory Concentration (MIC) [32]: 0.25 µg/mL
Minimum Inhibitory Concentration (MIC) [33]: 0.25 µg/mL
Minimum Inhibitory Concentration (MIC) [34]: 0.25 µg/mL
Minimum Inhibitory Concentration (MIC) [35]: 0.125 µg/mL
Minimum Inhibitory Concentration (MIC) [36]: 0.125 µg/mL
Minimum Inhibitory Concentration (MIC) [37]: 0.5 µg/mL
